Experimental data reported in US10702572B2, “Methods and compounds to suppress viral genome release and packaging” (Carnegie Mellon University, priority 2015, dated 2020).

What was measured:
DNA [1] = conditions: literature values; cited from earlier work
[2] = rat; cited from earlier work
LD50 in rat = conditions: conversion in brackets
HSV-2, strain G = experiment: Plaque reduction assay in HFF cells; format: cell-based; conditions: for EC50: reduces viral replication by 50%
[3] = tested on: HSV-1, strain DM2.1 (a resistant isolate); experiment: Plaque reduction assay in HFF cells; format: cell-based; conditions: Human alphaherpesvirus 1, HFF
Procedure: (§1) E-377 and DM2.1 strains of HSV-1 as well as the MS strain of HSV-2 were a gift of Jack Hill (Burroughs Wellcome). HCMV strain AD169 and VZV strain Ellen were obtained from the American Type Culture Collection (ATCC, Manassas, Va.).
(§2) Monolayers of HFF cells were prepared in six-well plates and incubated at 37° C. for 2 d to allow the cells to reach confluency. Media was then aspirated from the wells and 0.2 ml of virus was added to each of three wells to yield 20-30 plaques in each well. The virus was allowed to adsorb to the cells for 1 h and the plates were agitated every 15 minutes. Compounds were diluted in assay media consisting of MEM with Earl's salts supplemented with 2% FBS, L-glutamine, penicillin, and gentamycin. Solutions ranging from 300 μM to 0.1 μM were added to duplicate wells and the plates were incubated for various times, depending on the virus used. For HSV-1 and -2, the monolayers were then stained with 1% crystal violet in 20% methanol and the unbound dye removed by washing with dH2O. For all other assays, the cell monolayer was stained with 1% Neutral Red solution for 4 h then the stain was aspirated and the cells were washed with PBS. For all assays, plaques were enumerated using a stereomicroscope and the concentration of compound that reduced plaque formation by 50% (EC50) was interpolated from the experimental data.

in vitro = conditions: human
VZV, strain Ellen = experiment: Plaque reduction assay in HFF cells; format: cell-based; conditions: for EC50: Human alphaherpesvirus 3, reduces viral replication by 50%; for EC90: Human alphaherpesvirus 3, reduces viral replication by 90%
Procedure: HCMV strain AD169 and VZV strain Ellen were obtained from the American Type Culture Collection (ATCC, Manassas, Va.).
as §2, with “PBS.” for “PBS. For all assays, plaques were enumerated using a stereomicroscope and the concentration of compound that reduced plaque formation by 50% (EC50) was interpolated from the experimental data.”
However, unlike assays for HSV-1, HSV-2, MCMV and CMV compounds (where the compound is added to cells prior to virus addition), virus particles are not used in infection in assays for VZV where latent virus in the cells is induced to undergo a lytic infection, since the virions are unstable and infected cells. Thus, in the VZV study, bPEI is added to cell solution and virus is induced from within the cell by induction of lytic infectious cycle.

DNA [4] = experiment: DNA condensation, internal experimental observations, dint; format: biochemical
phage λ = experiment: Intracapsid DNA transition temperature by ITC and SAXS; set-up: species or system bacteriophage λ; conditions: for DNA transition temperature T*: WT DNA phage λ
Excerpt: WT bacteriophage λ cI857, with a genome length of 48.5 kb was produced by thermal induction of lysogenic E. coli strain AE1 derived from the 52773 strain. Two phage λ mutants with shorter genome lengths (78 and 94% of the WT DNA length) were produced using a similar procedure. The receptor was the LamB protein purified from pop 154, a strain of E. coli K12 in which the LamB gene has been transduced from Shigella sonnei 3070. Phage and LamB purification details are described in Evilevitch A., et al., Osmotic pressure inhibition of DNA ejection from phage. Proc. Natl. Acad. Sci. U.S.A. 2003; 100:9292-9295 and Ivanovska I., et al., Internal DNA pressure modifies stability of WT phage. Proc. Natl. Acad. Sci. U.S.A. 2007; 104:9603-9608.
All calorimetric measurements were performed using the MicroCal iTC200 system manufactured by GE Healthcare, Life Sciences. […] J. Mol. Biol. 2010; 395:1079-1087.
Small angle X-ray scattering (SAXS) measurements were carried out at the 12-ID B station at the Advanced Photon Source at Argonne National Laboratory. A 12-KeV X-ray beam was used to illuminate the sample with an overall scattering vector q range from 0.006 to 0.850 Å-1. A total of 120 μl of phage solution (˜5×1013 pfu/ml) was injected into a flow-through glass capillary and the solution was oscillated during the SAXS measurement with a flow rate of 10 μl/s. Forty scans with 1 s X-ray exposure time were collected and averaged for each sample. A buffer solution of the dialysis buffer for phage samples was measured using the same SAXS setup, which was further subtracted as the background. After the background subtraction, the scattered intensity I versus q was plotted and the DNA peak region was truncated from 0.18 Å-1 to 0.33 Å-1. This DNA diffraction peak was fitted with a Gaussian curve plus a linear background using function (1), where q0 is the peak center, w is the peak width, A0 is the peak area, k is the slope of the linear background and c is the offset.
[formula] […] Single-Molecule Fluorescence Measurements of Phage Ejection Ensemble Kinetics.
ITC and SAXS assays were used to determine DNA transition temperatures for WT λ-DNA length phage in MgCl2 Tris-buffer with MgCl2 concentrations varied between 5 and 50 mM, see FIGS. 3A-3C. The intracapsid DNA transition occurs at temperature T*, corresponding to either a discontinuity in the linear dependence of ΔHej on temperature (FIG. 3A) or to an abrupt change in the linear decay of the DNA diffraction peak area versus temperature measured by SAXS (FIG. 3B). DNA transition temperatures as a function of Mg-concentration determined by both techniques are in good agreement with each other and are summarized in FIG. 3C. […] However, the inventors have previously shown that at DNA packing density in phage λ, the screening effect of Mg-ions will become progressively smaller with increasing Mg-concentration due to the counter-ion saturation (Evilevitch A., et al., Effects of salt concentrations and bending energy on the extent of ejection of phage genomes. Biophys. J. 2008; 94:1110-1120). Furthermore, if the Mg ion concentration continues to increase, the counterions are forced into regions on the helices that begin to increase the effective repulsions between packaged DNA strands. […]

HSV-1, strain E-377 = experiment: Plaque reduction assay in HFF cells; format: cell-based; conditions: Human alphaherpesvirus 1, HFF; for EC50: concentration that reduces viral replication by 50%, various trials, each with its control; for EC90: concentration that reduces viral replication by 90%
Procedure: as §1, §2

HCMV, strain AD169 = experiment: Plaque reduction assay in HFF cells; format: cell-based; conditions: for EC50: reduces viral replication by 50%; for EC90: reduces viral replication by 90%
Procedure: as §1, §2

[5] = Parallel cytotoxicity assay in uninfected HFF cells; conditions: human
cell membrane = conditions: cited from earlier work; for permeation of cell membranes: when complexed with free DNA
[6] = CC50, parallel to HSV-1 DM2.1 assay
[7] = CC50, parallel to HSV-1 E-377 assay, reduces cell viability by 50%
[8] = CC50, parallel to HSV-2 strain G assay
[9] = CC50, parallel to VZV Ellen assay
[10] = Human betaherpesvirus 5, AD169, HFF
[11] = CC50, parallel to HCMV AD169 assay

In the case of Tetraornithine, the “dint (DNA condensation observed experimentally)” value (DNA [1]) is listed as 32.2 Å.
For `CCCCCCCCCCCCCCCC[N+](C)(C)C.[Br-]` [CTAB, hexadecyltrimethylammonium bromide], the LD50 [2] is listed as 410 mg/kg and the LD50 as concentration (LD50 in rat) is listed as ~1.1 mM.
With `Nc1nc2c(ncn2COCCO)c(=O)[nH]1` [Acyclovir, reference compound] the EC50 (HSV-2, strain G; Human alphaherpesvirus 2, HFF) was 3.69 µM, the EC50 (HSV-2, strain G) was 2.88 µM and the EC50 [3] was > 150 µM. The EC90 [3] was > 150 µM, the CC50 (in vitro; [6]) was > 150 µM and the CC50 (in vitro; [7]) was > 150 µM. For the same compound, the CC50 (in vitro; [8]) was > 150 µM, the CC50 (in vitro; [9]) was > 150 µM and the EC50 (VZV, strain Ellen) was 5.14 µM. It also gave an EC90 (VZV, strain Ellen) of 23.8 µM.
In the case of `N.N.N.N.N.N.[Cl-].[Cl-].[Cl-].[Co+3]` [Hexaamminecobalt(III) chloride], the “DNA condensed to (internal experimental observations)” value (DNA [4]; 2-100 mM) is given as 28 Å and the “dint (DNA condensation observed experimentally)” value (DNA [1]) is given as 27.8-28.2 Å.
In the case of Tetralysine (KKKK; Synthetic Lys4+), the “dint (DNA condensation observed experimentally)” value (DNA [1]) is given as 34.9 Å.
For `Cl.Cl.Cl.NCCCCNCCCN` [Spermidine trihydrochloride], the “dint (DNA condensation observed experimentally)” value (DNA [1]) is given as 28.8-29.7 Å.
In the case of `Nc1ccn(C[C@@H](CO)OCP(=O)(O)O)c(=O)n1` [Cidofovir, reference compound], the EC50 [3] is reported as 2.64 µM, the EC90 [3] is reported as > 150 µM and the CC50 (in vitro; [6]) is reported as > 150 µM.
In the case of `[Cl-].[Cl-].[Mg+2]` [MgCl2], the “DNA transition temperature T*” value (phage λ; 5 mM MgCl2 Tris-buffer) is reported as ~22 °C, the “DNA transition temperature T*” value (phage λ; 20 mM MgCl2 Tris-buffer) is reported as ~37 °C and the “DNA transition temperature T*” value (phage λ; 50 mM MgCl2 Tris-buffer) is reported as ~35 °C.
With `NCCCN(CCCN)CCCN(CCCCN(CCCN(CCCN)CCCN)CCCN(CCCN)CCCN)CCCN(CCCN)CCCN` [DAB-Am-8, Polypropylenimine octaamine Dendrimer, generation 2.0,1,4-diaminobutane core] the EC50 (HSV-1, strain E-377) was 0.09 µM, the EC90 (HSV-1, strain E-377) was > 3.8 µM and the EC50 [3] was 0.1 µM. The EC90 [3] was > 3.8 µM, the EC50 (HCMV, strain AD169; [10]) was 0.08 µM and the EC90 (HCMV, strain AD169; [10]) was > 3.8 µM. It also gave a CC50 [5, 11] of 4.41 µM, a CC50 [5, 6] of 9.32 µM and a CC50 [5, 7] of 13 µM. For the same compound, the “permeation of cell membranes” value (cell membrane) was “permeate cell membranes when complexed with free DNA”.
In the case of `Nc1nc(O)c2ncn(COC(CO)CO)c2n1` [Ganciclovir, reference compound], the EC50 (HCMV, strain AD169; [10]) is reported as 0.35 µM, the EC50 (HCMV, strain AD169) is reported as 0.3 µM and the CC50 (in vitro; [11]) is reported as > 150 µM.
In the case of `CCCCCCCCCCCC[N+](C)(C)C.[Br-]` [DTAB, dodecyltrimethylammonium bromide], the LD50 [2] is listed as 200 to 1000 mg/kg and the LD50 as concentration (LD50 in rat) is listed as 0.6 to 3.2 mM.
In the case of Trilysine, the “dint (DNA condensation observed experimentally)” value (DNA [1]) is listed as 38.9 Å.
In the case of Triornithine, the “dint (DNA condensation observed experimentally)” value (DNA [1]) is listed as 35.6 Å.
In the case of “Arg4+: poly-L-arginine peptide (SEQ ID NO: 21), Charge=+4 (RRRR; Synthetic Arg4+)”, the “dint, internal observations” value (DNA [4]; 1-2.5 mM) is given as 29.7-30.3 Å and the “dint (DNA condensation observed experimentally)” value (DNA [1]) is given as 29.8 Å.
In the case of `NCCNC(=O)CCN(CCC(=O)NCCN)CCN(CCC(=O)NCCN)CCC(=O)NCCN` [PAMAM Dendrimer G0, PAMAM dendrimer, ethylenediamine core, generation 0.0 solution], the EC50 (HSV-2, strain G; Human alphaherpesvirus 2, HFF) is reported as 0.09 µM, the EC90 (HSV-2, strain G; Human alphaherpesvirus 2, HFF, reduces viral replication by 90%) is reported as > 3 µM and the EC50 (HSV-1, strain E-377) is reported as 0.29 µM. For the same compound, the EC90 (HSV-1, strain E-377) was > 3 µM, the EC50 (HCMV, strain AD169; [10]) was > 0.6 µM and the EC90 (HCMV, strain AD169; [10]) was > 0.6 µM. For the same compound, the “dint, internal observations” value (DNA [4]; 0.15-2.50 mM) was 32-35.2 Å, the CC50 [5, 11] was 1.39 µM and the CC50 [5, 7] was 3.79 µM. For the same compound, the CC50 [5, 8] was 4.77 µM, the CC50 [5, 9] was 1.17 µM and the EC50 (VZV, strain Ellen) was > 0.6 µM. The EC90 (VZV, strain Ellen) was > 0.6 µM, the “dint (DNA condensation observed experimentally)” value (DNA [1]) was 31 Å and the “permeation of the cell membrane” value (cell membrane; compound alone, previously shown) was “permeate the cell membrane”.
For `Cl.Cl.Cl.Cl.NCCCNCCCCNCCCN` [spermine tetrahydrochloride], the “dint, internal experimental observations” value (DNA [4]; 0.5-100 mM) is listed as 28.2-29.4 Å, the “intracapsid DNA transition (DNA diffraction peak area vs temperature)” value (phage λ; WT DNA length phage λ, 10 mM MgCl2 Tris-buffer, 1 mM spermine (4+), 20-40° C.) is listed as “no abrupt DNA transition is observed” and the “dint (DNA condensation observed experimentally)” value (DNA [1]) is listed as 28 Å.
For `NCCCN(CCCN)CCCCN(CCCN)CCCN` [DAB-Am-4, Polypropylenimine tetramine dendrimer, generation 1,1,4-diaminobutane core, generation 1 solution], the EC50 (HSV-1, strain E-377) was 0.48 µM, the EC90 (HSV-1, strain E-377) was 3.49 µM and the EC50 [3] was > 19 µM. The EC90 [3] was > 19 µM, the EC50 (HCMV, strain AD169; [10]) was 0.51 µM and the EC90 (HCMV, strain AD169; [10]) was 3.11 µM. For the same compound, the CC50 [5, 11] was 15.4 µM, the CC50 [5, 6] was 28.6 µM and the CC50 [5, 7] was 38.1 µM. The “permeation of cell membranes” value (cell membrane) was “permeate cell membranes when complexed with free DNA”.
In the case of `CCCCCCCCCCCCCC[N+](C)(C)C.[Br-]` [TTAB, myristyltrimethylammonium bromide], the LD50 [2] is given as 3900 mg/kg and the LD50 as concentration (LD50 in rat) is given as ~11.6 mM.
